From patent publication US7445765B2, “Radiopharmaceutical for diagnostic imaging containing a technetium-99m nitride heterocomplex” (Nihon Medi-Physics Co., Ltd., priority 2000, dated 2008)

Legend:
[1] = Biodistribution of the 99mTc(N) heterocomplexes in rats (organ uptake, heart accumulation, heart/lung and heart/liver ratios); assay type: in vivo, female Sprague-Dawley rats
Method in brief: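 Female Sprague-Dawley rats (200–250 g, n=3), ketamine/xylazine anaesthesia, got 300–370 kBq of each purified heterocomplex in pH 7.4 phosphate buffer (10% ethanol) via the jugular vein. They were killed at several post-injection times. Heart blood and washed, weighed organs were gamma-counted, taking whole blood as 6.5% of body weight.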

[2] = Measurement of Log k′ by HPLC, PNP5 or PNP6 heterocomplexes; assay type: physicochemical; settings: HPLC C18, methanol/phosphate buffer (pH 7.4, 0.02M), 1.0 mL/min; extrapolated to 0% organic solvent
Description: Log k′o values, measured at various compositions of the mobile phase, were determind for the ^99mTc(N) heterocomplexes obtained using PNP5 or PNP6 as a bisphosphinoamine compound. The analysis of the relationship between Log k′o values and the mobile-phase composition yielded extrapolated Log k′ values as a measure of the partitioning between the hydrophobic stationary phase and water. The Log k′ values were extrapolated from the linear part of the curve.
TLC chromatography was carried out on silica-gel plates and using the mixture ethanol/chloroform/toluene/[NH4][CH3COO] (0.5 M) (5:3:3:0.5) as mobile phase. […] HPLC analysis was performed on a Beckman System Gold instrument equipped with a Programmable Solvent Module 126, a scanning detector Module 166 and a radioisotope detector Module 170. A C18 reversed-phase precolumn (Ultrasphere Beckman, 4.6×45 mm), a C18 reversed-phase column (Ultrasphere Beckman, 4.6×250 mm) and a 100-μL loop were used. The mobile phase was methanol in various mixtures (% v/v) with a phosphate buffer (pH=7.4, 0.02M) at a flow rate of 1.0 mL min^−1. Before injection, all solutions were purified using a CM Sep-Pak cartridge. […]

- Biodistribution in rats: Adrenal glands ([1]; 0 min post injection): 2.87 % dose/g
- Biodistribution in rats: Blood ([1]; 0 min post injection): 6.65 % dose/g
- Biodistribution in rats: Brain ([1]; 0 min post injection): 0.45 % dose/g
- Biodistribution in rats: Heart ([1]; 0 min post injection): 5.01 % dose/g
- Biodistribution in rats: Intestine ([1]; 0 min post injection): 1.71 % dose/g
- Biodistribution in rats: Kidneys ([1]; 0 min post injection): 3.71 % dose/g
- Biodistribution in rats: Liver ([1]; 0 min post injection): 0.82 % dose/g
- Biodistribution in rats: Lungs ([1]; 0 min post injection): 6.58 % dose/g
- Biodistribution in rats: Muscle ([1]; 0 min post injection): 0.09 % dose/g
- Biodistribution in rats: Spleen ([1]; 0 min post injection): 1.75 % dose/g
- Biodistribution in rats: Submax. glands ([1]; 0 min post injection): 0.16 % dose/g
- Biodistribution in rats: Adrenal glands ([1]; 2 min post injection): 3.95 % dose/g
- Biodistribution in rats: Blood ([1]; 2 min post injection): 0.11 % dose/g
- Biodistribution in rats: Brain ([1]; 2 min post injection): 0.03 % dose/g
- Biodistribution in rats: Heart ([1]; 2 min post injection): 3.94 % dose/g
- Biodistribution in rats: Intestine ([1]; 2 min post injection): 7.97 % dose/g
- Biodistribution in rats: Kidneys ([1]; 2 min post injection): 14.69 % dose/g
- Biodistribution in rats: Liver ([1]; 2 min post injection): 2.66 % dose/g
- Biodistribution in rats: Lungs ([1]; 2 min post injection): 0.99 % dose/g
- Biodistribution in rats: Muscle ([1]; 2 min post injection): 0.20 % dose/g
- Biodistribution in rats: Spleen ([1]; 2 min post injection): 2.68 % dose/g
- Biodistribution in rats: Submax. glands ([1]; 2 min post injection): 1.77 % dose/g
- Biodistribution in rats: Adrenal glands ([1]; 10 min post injection): 3.73 % dose/g
- Biodistribution in rats: Blood ([1]; 10 min post injection): 0.03 % dose/g
- Biodistribution in rats: Brain ([1]; 10 min post injection): 0.01 % dose/g
- Biodistribution in rats: Heart ([1]; 10 min post injection): 3.69 % dose/g
- Biodistribution in rats: Intestine ([1]; 10 min post injection): 9.04 % dose/g
- Biodistribution in rats: Kidneys ([1]; 10 min post injection): 9.16 % dose/g
- Biodistribution in rats: Liver ([1]; 10 min post injection): 1.61 % dose/g
- Biodistribution in rats: Lungs ([1]; 10 min post injection): 0.88 % dose/g
- Biodistribution in rats: Muscle ([1]; 10 min post injection): 0.21 % dose/g
- Biodistribution in rats: Spleen ([1]; 10 min post injection): 1.79 % dose/g
- Biodistribution in rats: Submax. glands ([1]; 10 min post injection): 1.79 % dose/g
- Biodistribution in rats: Adrenal glands ([1]; 20 min post injection): 3.00 % dose/g
- Biodistribution in rats: Blood ([1]; 20 min post injection): 0.02 % dose/g
- Biodistribution in rats: Brain ([1]; 20 min post injection): 0.01 % dose/g
- Biodistribution in rats: Heart ([1]; 20 min post injection): 3.63 % dose/g
- Biodistribution in rats: Intestine ([1]; 20 min post injection): 9.63 % dose/g
- Biodistribution in rats: Kidneys ([1]; 20 min post injection): 6.58 % dose/g
- Biodistribution in rats: Liver ([1]; 20 min post injection): 0.96 % dose/g
- Biodistribution in rats: Lungs ([1]; 20 min post injection): 0.57 % dose/g
- Biodistribution in rats: Muscle ([1]; 20 min post injection): 0.17 % dose/g
- Biodistribution in rats: Spleen ([1]; 20 min post injection): 1.41 % dose/g
- Biodistribution in rats: Submax. glands ([1]; 20 min post injection): 1.57 % dose/g
- Biodistribution in rats: Adrenal glands ([1]; 30 min post injection): 3.36 % dose/g
- Biodistribution in rats: Blood ([1]; 30 min post injection): 0.02 % dose/g
- Biodistribution in rats: Brain ([1]; 30 min post injection): 0.01 % dose/g
- Biodistribution in rats: Heart ([1]; 30 min post injection): 3.73 % dose/g
- Biodistribution in rats: Intestine ([1]; 30 min post injection): 6.70 % dose/g
- Biodistribution in rats: Kidneys ([1]; 30 min post injection): 6.70 % dose/g
- Biodistribution in rats: Liver ([1]; 30 min post injection): 0.72 % dose/g
- Biodistribution in rats: Lungs ([1]; 30 min post injection): 0.64 % dose/g
- Biodistribution in rats: Muscle ([1]; 30 min post injection): 0.19 % dose/g
- Biodistribution in rats: Spleen ([1]; 30 min post injection): 0.92 % dose/g
- Biodistribution in rats: Submax. glands ([1]; 30 min post injection): 1.88 % dose/g
- Biodistribution in rats: Adrenal glands ([1]; 60 min post injection): 4.17 % dose/g
- Biodistribution in rats: Blood ([1]; 60 min post injection): 0.01 % dose/g
- Biodistribution in rats: Brain ([1]; 60 min post injection): 0.01 % dose/g
- Biodistribution in rats: Heart ([1]; 60 min post injection): 3.76 % dose/g
- Biodistribution in rats: Intestine ([1]; 60 min post injection): 6.52 % dose/g
- Biodistribution in rats: Kidneys ([1]; 60 min post injection): 5.73 % dose/g
- Biodistribution in rats: Liver ([1]; 60 min post injection): 0.20 % dose/g
- Biodistribution in rats: Lungs ([1]; 60 min post injection): 0.46 % dose/g
- Biodistribution in rats: Muscle ([1]; 60 min post injection): 0.21 % dose/g
- Biodistribution in rats: Spleen ([1]; 60 min post injection): 0.41 % dose/g
- Biodistribution in rats: Submax. glands ([1]; 60 min post injection): 1.84 % dose/g
- Biodistribution in rats: Adrenal glands ([1]; 120 min post injection): 3.44 % dose/g
- Biodistribution in rats: Blood ([1]; 120 min post injection): 0.01 % dose/g
- Biodistribution in rats: Brain ([1]; 120 min post injection): 0.00 % dose/g
- Biodistribution in rats: Heart ([1]; 120 min post injection): 3.31 % dose/g
- Biodistribution in rats: Intestine ([1]; 120 min post injection): 6.57 % dose/g
- Biodistribution in rats: Kidneys ([1]; 120 min post injection): 3.48 % dose/g
- Biodistribution in rats: Liver ([1]; 120 min post injection): 0.10 % dose/g
- Biodistribution in rats: Lungs ([1]; 120 min post injection): 0.25 % dose/g
- Biodistribution in rats: Muscle ([1]; 120 min post injection): 0.23 % dose/g
- Biodistribution in rats: Spleen ([1]; 120 min post injection): 0.21 % dose/g
- Biodistribution in rats: Submax. glands ([1]; 120 min post injection): 2.09 % dose/g
- LOG k′ [2]: 3.69
Compound: CCOCCN1CC[P](CCCOC)(CCCOC)[99Tc+]2(#[N])([S]C(N(CCOCC)CCOCC)=[S]2)[P](CCCOC)(CCCOC)CC1 [[^99mTc(N) (PNP5) (DBODC)]^+]
